Legend:
Homo sapiens [1] = experiment: In vivo inhibition of CYP2C8 in human assessed as reduction in gemfibrozil-1-O-glucuronide metabolite formation in plasma at 30 mg, po administered as single dose measured after 10 hrs by LC-MS/MS analysis
[2] = In vivo drug metabolism in human assessed as CYP2C8-mediated gemfibrozil-1-O-beta-glucuronide-2'-benzyl alcohol metabolite levels in urine at 450 mg, po after 24 hrs by HPLC analysis; assay type: ADME, organism-based
[3] = In vivo drug metabolism in human assessed as CYP2C8-mediated gemfibrozil-1-O-beta-glucuronide-5'-benzyl alcohol metabolite levels in urine at 450 mg, po after 24 hrs by HPLC analysis; assay type: ADME, organism-based
[4] = In vivo drug metabolism in human assessed as UGT2B7-mediated gemfibrozil-1-O-beta-glucuronide metabolite levels in urine at 450 mg, po after 24 hrs by HPLC analysis; assay type: ADME, organism-based
[5] = In vivo drug metabolism in human assessed as CYP2C8-mediated glucuronide conjugate formation in urine by LC-MS/MS analysis; assay type: ADME, organism-based
Cytochrome P450 2C8 [6] = target: T1, Cytochrome P450 2C8 (Homo sapiens, UniProt P10632); experiment: (§1) Inhibition of CYP2C8 in human liver microsomes preincubated for 30 mins followed by substrate addition measured after 2 mins; assay type: ADME
T1 sequence (P10632 whole entry): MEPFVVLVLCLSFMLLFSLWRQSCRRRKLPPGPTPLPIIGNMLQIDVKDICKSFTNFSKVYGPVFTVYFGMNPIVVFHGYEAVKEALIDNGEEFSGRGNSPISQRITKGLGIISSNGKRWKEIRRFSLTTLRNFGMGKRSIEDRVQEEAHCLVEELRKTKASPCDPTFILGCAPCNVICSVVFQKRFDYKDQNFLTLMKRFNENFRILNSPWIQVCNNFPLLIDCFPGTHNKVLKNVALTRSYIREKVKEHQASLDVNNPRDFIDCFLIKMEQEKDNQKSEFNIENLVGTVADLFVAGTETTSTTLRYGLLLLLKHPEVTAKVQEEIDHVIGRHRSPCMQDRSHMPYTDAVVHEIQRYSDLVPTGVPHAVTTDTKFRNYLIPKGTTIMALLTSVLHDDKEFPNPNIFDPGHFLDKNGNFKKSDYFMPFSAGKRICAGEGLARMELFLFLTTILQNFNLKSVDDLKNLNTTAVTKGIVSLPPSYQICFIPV

CYP2C8 [7] = target: T2, CYP2C8 (Homo sapiens, UniProt P10632); experiment: as §1; assay type: ADME; conditions: human, liver microsomes
T2 sequence (P10632 whole entry): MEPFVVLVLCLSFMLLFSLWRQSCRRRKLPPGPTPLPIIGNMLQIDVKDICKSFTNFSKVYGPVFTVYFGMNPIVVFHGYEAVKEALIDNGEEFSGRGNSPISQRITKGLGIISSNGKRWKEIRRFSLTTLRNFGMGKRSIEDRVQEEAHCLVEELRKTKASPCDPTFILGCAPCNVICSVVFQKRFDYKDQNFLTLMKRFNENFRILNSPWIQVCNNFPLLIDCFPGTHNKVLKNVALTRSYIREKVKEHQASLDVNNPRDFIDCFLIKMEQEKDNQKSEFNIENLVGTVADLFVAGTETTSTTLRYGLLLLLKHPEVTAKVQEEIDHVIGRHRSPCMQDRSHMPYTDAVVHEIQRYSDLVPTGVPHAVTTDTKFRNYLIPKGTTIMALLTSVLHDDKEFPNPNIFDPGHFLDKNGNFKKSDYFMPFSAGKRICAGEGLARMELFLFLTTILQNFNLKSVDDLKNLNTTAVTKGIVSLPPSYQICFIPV

Cytochrome P450 2C8 [8] = target: T1, Cytochrome P450 2C8; experiment: Inhibition of CYP2C8 in human liver microsomes using paclitaxel as substrate preincubated for 2 to 40 mins followed by NADPH-generating system addition measured after 2 mins; assay type: ADME
Cytochrome P450 2C8 [9] = target: T1, Cytochrome P450 2C8; experiment: Inhibition of CYP2C8 in human liver microsomes using paclitaxel as substrate after 5 mins; assay type: ADME
Blood [10] = experiment: In vivo drug metabolism in human assessed as UGT-mediated deleobuvir acyl glucuronide metabolite formation in blood at 800 mg,po administered as single dose measured up to 12 hrs; assay type: ADME, organism-based
Blood [11] = experiment: In vivo drug metabolism in human assessed as 3-(2-(1-(2-(5-bromopyrimidin-2-yl)-3-cyclopentyl-1-methyl-1H-indole-6-carboxamido)cyclobutyl)-1-methyl-1H-benzo[d]imidazol-6-yl)propanoic acid metabolite formation in blood at 800 mg,po administered as single dose measured up to 12 hrs by radiolabled assay; assay type: ADME, organism-based
Homo sapiens [12] = experiment: In vivo drug metabolism in human assessed as CYP2C9-mediated 4'-hydroxydiclofinac metabolite formation; assay type: ADME, organism-based
[13] = In vivo drug metabolism in human assessed as UGT2B7-mediated 4'-hydroxydiclofinac acyl glucuronide level in urine; assay type: ADME, organism-based
Cytochrome P450 2C8 [14] = target: T1, Cytochrome P450 2C8; experiment: Reversible inhibition of CYP2C8 in human liver microsomes after 5 mins by LC-MS/MS analysis; assay type: ADME
Cytochrome P450 1A2 = target: T3, Cytochrome P450 1A2 (Homo sapiens, UniProt P05177); experiment: (§2) Inactivation of CYP1A2 in human liver microsomes after 5 mins by LC-MS/MS analysis; assay type: ADME
T3 sequence (P05177 whole entry): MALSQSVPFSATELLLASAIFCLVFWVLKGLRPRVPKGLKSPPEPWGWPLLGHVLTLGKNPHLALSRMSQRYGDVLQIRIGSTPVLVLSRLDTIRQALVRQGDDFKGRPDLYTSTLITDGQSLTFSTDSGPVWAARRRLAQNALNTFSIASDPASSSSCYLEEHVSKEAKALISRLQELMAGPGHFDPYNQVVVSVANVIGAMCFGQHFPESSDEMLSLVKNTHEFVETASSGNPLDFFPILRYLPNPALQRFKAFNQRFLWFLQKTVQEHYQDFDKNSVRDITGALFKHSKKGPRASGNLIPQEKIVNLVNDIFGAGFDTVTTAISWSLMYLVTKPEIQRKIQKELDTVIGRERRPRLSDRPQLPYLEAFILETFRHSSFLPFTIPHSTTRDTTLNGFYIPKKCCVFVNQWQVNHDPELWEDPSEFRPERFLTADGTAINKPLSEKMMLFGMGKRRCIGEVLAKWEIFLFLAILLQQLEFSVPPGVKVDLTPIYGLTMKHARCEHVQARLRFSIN

CYP1A2 = target: T4, CYP1A2 (Homo sapiens, UniProt P05177); experiment: as §2; assay type: ADME; conditions: human, liver microsomes
T4 sequence (P05177 whole entry): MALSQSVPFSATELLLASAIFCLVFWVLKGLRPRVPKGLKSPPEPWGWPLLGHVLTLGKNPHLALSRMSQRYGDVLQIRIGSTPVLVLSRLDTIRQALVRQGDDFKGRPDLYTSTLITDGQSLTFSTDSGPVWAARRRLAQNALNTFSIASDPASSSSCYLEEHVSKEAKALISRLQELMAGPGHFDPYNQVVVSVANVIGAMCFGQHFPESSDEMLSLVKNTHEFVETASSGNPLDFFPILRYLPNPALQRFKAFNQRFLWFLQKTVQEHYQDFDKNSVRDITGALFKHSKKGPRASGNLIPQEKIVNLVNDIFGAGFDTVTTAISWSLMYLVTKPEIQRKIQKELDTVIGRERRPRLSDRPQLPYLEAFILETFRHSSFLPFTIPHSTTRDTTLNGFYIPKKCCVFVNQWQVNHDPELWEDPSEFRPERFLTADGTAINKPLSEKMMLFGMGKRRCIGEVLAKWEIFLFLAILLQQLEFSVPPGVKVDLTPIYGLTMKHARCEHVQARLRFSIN

Cytochrome P450 2C8 [15] = target: T1, Cytochrome P450 2C8; experiment: (§3) Time dependent inhibition of CYP2C8 in human liver microsomes after 5 mins by LC-MS/MS analysis; assay type: ADME
CYP2C8 [16] = target: T2, CYP2C8; experiment: as §3; assay type: ADME; conditions: human, liver microsomes
[17] = substrate: C[C@]12CC[C@@H]3c4ccc(O)cc4CC[C@H]3[C@@H]1CC[C@@H]2O[C@@H]1O[C@H](C(=O)O)[C@@H](O)[C@H](O)[C@H]1O; experiment: Drug metabolism in human liver microsomes assessed as CYP2C8-mediated glucuronide conjugate formation per nmol of protein after 30 mins by HPLC-MS/MS analysis; assay type: ADME

In the case of `Cc1ccc(C)c(OCCCC(C)(C)C(=O)O)c1` [GEMFIBROZIL], the “inhibition (INH)” value (Homo sapiens [1]) is reported as 50%, the Drug metabolism [2] is reported as 20 %ID and the Drug metabolism [3] is reported as 20 %ID. The Drug metabolism [4] was 32 %ID.

`CC(C)Cc1ccc(C(C)C(=O)O)cc1` (stereo not given) [IBUPROFEN] showed a Drug metabolism [5] of 10 to 15 %ID.

In the case of `O=C(O)[C@H]1O[C@@H](OC(=O)[C@H](c2ccccc2Cl)N2CCc3sccc3C2)[C@H](O)[C@@H](O)[C@@H]1O`, the Ki (Cytochrome P450 2C8 [6]) is reported as 9.9 µM and the kinact at 2 min (CYP2C8 [7]) is reported as 0.000783 s⁻¹.

For `Cc1ccc(C)c(OCCCC(C)(C)C(=O)O[C@@H]2O[C@H](C(=O)O)[C@@H](O)[C@H](O)[C@H]2O)c1`, the Ki (Cytochrome P450 2C8 [8]) was 52 µM and the IC50 (Cytochrome P450 2C8 [9]) was 24 µM.

`Cn1c(C2(NC(=O)c3ccc4c(C5CCCC5)c(-c5ncc(Br)cn5)n(C)c4c3)CCC2)nc2ccc(/C=C/C(=O)O)cc21` [DELEOBUVIR] showed a Drug metabolism (Blood [10]) of 20 %ID and a Drug metabolism (Blood [11]) of 15 %ID.

Work on `O=C(O)Cc1ccccc1Nc1c(Cl)cccc1Cl` [DICLOFENAC] yielded a Drug metabolism (Homo sapiens [12]) of 30 %ID and a Drug metabolism [13] of 10 to 20 %ID.

Work on `Cn1c(C2(NC(=O)c3ccc4c(C5CCCC5)c(-c5ncc(Br)cn5)n(C)c4c3)CCC2)nc2ccc(/C=C/C(=O)O[C@@H]3O[C@H](C(=O)O)[C@@H](O)[C@H](O)[C@H]3O)cc21` yielded a Ki (Cytochrome P450 2C8 [14]) of 0.022 µM, a Ki (Cytochrome P450 1A2) of 54.6 µM and a kinact at 5 min (CYP1A2) of 0.000733 s⁻¹. For the same molecule, the Ki (Cytochrome P450 2C8 [15]) was 0.0521 µM and the kinact at 5 min (CYP2C8 [16]) was 0.000868 s⁻¹.

B1: Cytochrome P450 2C8 (Homo sapiens) (protein)
chain: MEPFVVLVLCLSFMLLFSLWRQSCRRRKLPPGPTPLPIIGNMLQIDVKDICKSFTNFSKVYGPVFTVYFGMNPIVVFHGYEAVKEALIDNGEEFSGRGNSPISQRITKGLGIISSNGKRWKEIRRFSLTTLRNFGMGKRSIEDRVQEEAHCLVEELRKTKASPCDPTFILGCAPCNVICSVVFQKRFDYKDQNFLTLMKRFNENFRILNSPWIQVCNNFPLLIDCFPGTHNKVLKNVALTRSYIREKVKEHQASLDVNNPRDFIDCFLIKMEQEKDNQKSEFNIENLVGTVADLFVAGTETTSTTLRYGLLLLLKHPEVTAKVQEEIDHVIGRHRSPCMQDRSHMPYTDAVVHEIQRYSDLVPTGVPHAVTTDTKFRNYLIPKGTTIMALLTSVLHDDKEFPNPNIFDPGHFLDKNGNFKKSDYFMPFSAGKRICAGEGLARMELFLFLTTILQNFNLKSVDDLKNLNTTAVTKGIVSLPPSYQICFIPV
For B1, the Km [17] was 88 µM and the Vmax [17] was 0.00186 µmol/min.

Reference: ChEMBL document CHEMBL4017488, “Glucuronides as Potential Anionic Substrates of Human Cytochrome P450 2C8 (CYP2C8)” (J Med Chem, 2017)
